pIC50: −log10 of the molar value.
Legend:
human CSNK1D = target: T1, human CSNK1D (Homo sapiens, UniProt P48730); assay: Whole Cell nBRET CSNK1D Binding Assay; settings: living CHO cells stably expressing human CSNK1D tagged with nanoluciferase; NanoBret tracer 130 nM; 2 hours at 37 C
T1 construct: expressed in transfected cells

[1] = target: T2, human recombinant GST cleaved CSNK1D (Homo sapiens, UniProt P48730); assay: Purified Enzyme Assay (ADP-Glo CSNK1D Kinase Assay); type: biochemical; settings: 2 nM CSNK1D; peptide substrate 150 μM; ATP 20 μM; 45 minutes at room temperature
T2 construct: GST (cleaved yes); purchased University of Dundee clone DU 19064
Summary of the method: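 GST-cleaved human recombinant CSNK1D phosphorylates peptide PLSRTL-pS-VASLPGL with ATP; compounds added in dose-response, 45 min at room temperature. ADP formed measured by ADP-Glo luminescence and converted to percent activity.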

T2 sequence (P48730 whole entry): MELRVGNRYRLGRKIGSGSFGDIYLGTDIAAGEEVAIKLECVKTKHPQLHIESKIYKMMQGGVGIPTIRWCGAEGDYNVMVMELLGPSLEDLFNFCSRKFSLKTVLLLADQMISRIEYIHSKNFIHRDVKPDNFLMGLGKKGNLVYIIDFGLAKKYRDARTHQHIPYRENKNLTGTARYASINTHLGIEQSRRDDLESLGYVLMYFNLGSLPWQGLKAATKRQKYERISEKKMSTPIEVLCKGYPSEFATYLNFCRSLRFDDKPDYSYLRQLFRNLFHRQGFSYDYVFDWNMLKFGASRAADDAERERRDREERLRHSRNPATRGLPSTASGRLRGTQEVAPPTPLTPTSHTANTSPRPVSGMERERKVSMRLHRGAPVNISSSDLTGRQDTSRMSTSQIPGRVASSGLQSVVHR
T1 sequence (P48730 whole entry): as above

| Compound | pIC50 (human CSNK1D) | pIC50 [1] |
| --- | --- | --- |
| Cc1cc(-c2c(-c3ccc(F)cn3)nn3c2COC(C)(C)C3)c2cn[nH]c2n1 [Example 154, 2-(5-Fluoro-2-pyridyl)-6,6-dimethyl-3-(6-methyl-1H-pyrazolo[3,4-b]pyridin-4-yl)-4,7-dihydropyrazolo[5,1-c][1,4]oxazine] | 7.64 | 8.70 |
| Cc1nc2[nH]nc(C)c2c(-c2c(-c3ccc(F)cn3)nn3c2CC[C@]2(C3)CC2(F)F)c1F (single isomer, unassigned) [Example 334, (*R)-2,2-Difluoro-3′-(5-fluoro-3,6-dimethyl-1H-pyrazolo[3,4-b]pyridin-4-yl)-2′-(5-fluoropyridin-2-yl)-4′,5′-dihydro-7′H-spiro[cyclopropane-1,6′-pyrazolo[1,5-a]pyridine]] | 5.81 | 7.15 |
| Fc1ccc(-c2nn3c(c2-c2ccnc4[nH]ncc24)CCC(F)(COC(F)(F)F)C3)nc1 (single isomer, unassigned) [Example 317, (*R)-4-[6-Fluoro-2-(5-fluoro-2-pyridyl)-6-(trifluoromethoxymethyl)-5,7-dihydro-4H-pyrazolo[1,5-a]pyridin-3-yl]-1H-pyrazolo[3,4-b]pyridine] | 5.07 | 6.95 |
| Cc1cc(-c2c(-c3ccc(F)cc3)nn3c2OCC2(COC2)C3)c2cn[nH]c2n1 [Example 211, 2′-(4-Fluorophenyl)-3′-(6-methyl-1H-pyrazolo[3,4-b]pyridin-4-yl)-5′H,7′H-spiro[oxetane-3,6′-pyrazolo[5,1-b][1,3]oxazine]] | 8.22 | 9.00 |
| Cc1n[nH]c2nccc(-c3c(-c4ccc(F)cc4)nn4c3OCC3(C4)CC3(F)F)c12 (single isomer, unassigned) [Example 473, (*R)-2,2-Difluoro-2′-(4-fluorophenyl)-3′-(3-methyl-1H-pyrazolo[3,4-b]pyridin-4-yl)-5′H,7′H-spiro[cyclopropane-1,6′-pyrazolo[5,1-b][1,3]oxazine]] | 8.22 | 8.70 |
| Cc1cc(-c2c(-c3ccc(F)cn3)nn3c2C[C@H]2C[C@H]23)c2cn[nH]c2n1 [Example 27, (4aR,5aR)-2-(5-Fluoropyridin-2-yl)-3-(6-methyl-1H-pyrazolo[3,4-b]pyridin-4-yl)-4,4a,5,5a-tetrahydrocyclopropa[4,5]pyrrolo[1,2-b]pyrazole] | 6.36 | 7.39 |
| CC1(C)Cn2nc(-c3ccc(F)cn3)c(-c3ccn4nccc4c3)c2O1 [Example 367, 6-(5-Fluoro-2-pyridyl)-2,2-dimethyl-7-pyrazolo[1,5-a]pyridin-5-yl-3H-pyrazolo[5,1-b]oxazole] | 6.25 | 7.39 |
| Cc1cc(-c2c(-c3ccc(F)cn3)nn3c2CC[C@H]3C)c2cn[nH]c2n1 [Example 21, 4-[(6R)-2-(5-Fluoro-2-pyridyl)-6-methyl-5,6-dihydro-4H-pyrrolo[1,2-b]pyrazol-3-yl]-6-methyl-1H-pyrazolo[3,4-b]pyridine] | 6.45 | 7.85 |
| COc1cnccc1-c1c(-c2ccc(F)cn2)nn2c1COC(C)(C)C2 [Example 130, 2-(5-Fluoropyridin-2-yl)-3-(3-methoxypyridin-4-yl)-6,6-dimethyl-6,7-dihydro-4H-pyrazolo[5,1-c][1,4]oxazine] | 6.20 | 7.51 |
| C[C@H]1n2nc(-c3ccc(F)cc3)c(-c3ccnc4[nH]ncc34)c2COC1(C)C (single isomer, unassigned) [Example 172] | 7.27 | 8.30 |
| Fc1ccc(-c2nn3c(c2-c2ccnc4[nH]ncc24)CC2(C3)CC2(F)F)nc1 (single isomer, unassigned) [Example 254, (*S)-1′1l′-Difluoro-2-(5-fluoro-2-pyridyl)-3-(1H-pyrazolo[3,4-b]pyridin-4-yl)spiro[4,6-dihydropyrrolo[1,2-b]pyrazole-5,2′-cyclopropane]] | 7.07 | 8.40 |
| Fc1ccc(-c2nn3c(c2-c2ccnc4[nH]ccc24)CCCC3)cc1 [Example 33, 4-[2-(4-Fluorophenyl)-4,5,6,7-tetrahydropyrazolo[1,5-a]pyridin-3-yl]-1H-pyrrolo[2,3-b]pyridine] | 7.70 | 8.40 |
| Fc1ccc(-c2nn3c(c2-c2ccnc4[nH]ncc24)C[C@@H]2[C@H](C3)C2(F)F)cc1 (stereo in doubt) [Example 362, (4a*R,5a*R)-5,5-Difluoro-2-(4-fluorophenyl)-3-(1H-pyrazolo[3,4-b]pyridin-4-yl)-4a,5,5a,6-tetrahydro-4H-cyclopropa[d]pyrazolo[1,5-a]pyridine] | 8.52 | 9.00 |

Results, then the compound that gave them:

| pIC50 (human CSNK1D) | pIC50 [1] | Compound |
| --- | --- | --- |
| 5.55 | 7.05 | COCC1(F)CCc2c(-c3cc(C)nc4[nH]ncc34)c(-c3ccc(F)cn3)nn2C1 (single isomer, unassigned) [Example 305, (*R)-4-[6-Fluoro-2-(5-fluoro-2-pyridyl)-6-(methoxymethyl)-5,7-dihydro-4H-pyrazolo[1,5-a]pyridin-3-yl]-6-methyl-1H-pyrazolo[3,4-b]pyridine] |
| 6.99 | 8.15 | CC1(C)Cn2nc(-c3ncc(F)cc3F)c(-c3ccnc4[nH]ncc34)c2CO1 [Example 166, 2-(3,5-Difluoropyridin-2-yl)-6,6-dimethyl-3-(1H-pyrazolo[3,4-b]pyridin-4-yl)-6,7-dihydro-4H-pyrazolo[5,1-c][1,4]oxazine] |
| 7.82 | 9.00 | [2H]C([2H])([2H])[C@]1(C#N)CCc2c(-c3ccnc4[nH]ncc34)c(-c3ccc(F)cn3)nn2C1 (single isomer, unassigned) [Example 323, *S-2-(5-Fluoropyridin-2-yl)-6-(methyl-d3)-3-(1H-pyrazolo[3,4-b]pyridin-4-yl)-4,5,6,7-tetrahydropyrazolo[1,5-a]pyridine-6-carbonitrile] |
| 5.44 | 6.83 | CNC(=O)c1cc(-c2c(-c3ccc(F)cn3)nn3c2COC(C)(C(F)(F)F)C3)ccn1 (stereo not drawn) [Example 175, 4-(2-(5-Fluoropyridin-2-yl)-6-methyl-6-(trifluoromethyl)-6,7-dihydro-4H-pyrazolo[5,1-c][1,4]oxazin-3-yl)-N-methylpicolinamide] |
| 5.49 | 7.49 | O=C1OCCn2nc(-c3ccc(F)cc3)c(-c3ccnc4[nH]ncc34)c21 [Example 181, 2-(4-Fluorophenyl)-3-(1H-pyrazolo[3,4-b]pyridin-4-yl)-6,7-dihydropyrazolo[5,1-c][1,4]oxazin-4-one] |
| 6.53 | 7.92 | COCC1CCc2c(-c3cc(C)nc4[nH]ncc34)c(-c3ccc(F)cn3)nn2C1 (single isomer, unassigned) [Example 297, (*R)-4-[2-(5-Fluoro-2-pyridyl)-6-(methoxymethyl)-4,5,6,7-tetrahydropyrazolo[1,5-a]pyridin-3-yl]-6-methyl-1H-pyrazolo[3,4-b]pyridine] |
| 7.14 | 8.22 | Cc1cc(-c2c(-c3ccc(F)cc3)nn3c2C[C@H]2C[C@H]23)c2cn[nH]c2n1 [Example 269] |
| 7.47 | 8.52 | [2H]C([2H])([2H])OC[C@]1(F)CCc2c(-c3cc(C)nc4[nH]ncc34)c(-c3ccc(F)cn3)nn2C1 (single isomer, unassigned) [Example 310, (*S)-4-(6-Fluoro-2-(5-fluoropyridin-2-yl)-6-((methoxy-d3)methyl)-4,5,6,7-tetrahydropyrazolo[1,5-a]pyridin-3-yl)-6-methyl-1H-pyrazolo[3,4-b]pyridine] |

Reference: patent publication US20230339970A1, “CASEIN KINASE 1 DELTA MODULATORS” (priority 2020, published 2023)
